Reference: patent US5891882A, “Benzopyranopyrrole and benzopyranopyridine α-1 adenergic compounds” (priority 1997, dated 1999)
Where a name gives a salt, the structure may show the parent alone. Read-outs that look alike come from different tables or passages of the source.

Columns and labels:
[1] = biological target: T1, α-1a adrenoreceptor (bovine) (Bos taurus, UniProt P18130); assay: In vitro [3H]-prazosin radioligand binding, cloned α-1a adrenoreceptor expressed in LTK cells
T1 construct: expressed in transfected cells; cDNA from TULCO; membranes
T1 sequence (P18130 1-466): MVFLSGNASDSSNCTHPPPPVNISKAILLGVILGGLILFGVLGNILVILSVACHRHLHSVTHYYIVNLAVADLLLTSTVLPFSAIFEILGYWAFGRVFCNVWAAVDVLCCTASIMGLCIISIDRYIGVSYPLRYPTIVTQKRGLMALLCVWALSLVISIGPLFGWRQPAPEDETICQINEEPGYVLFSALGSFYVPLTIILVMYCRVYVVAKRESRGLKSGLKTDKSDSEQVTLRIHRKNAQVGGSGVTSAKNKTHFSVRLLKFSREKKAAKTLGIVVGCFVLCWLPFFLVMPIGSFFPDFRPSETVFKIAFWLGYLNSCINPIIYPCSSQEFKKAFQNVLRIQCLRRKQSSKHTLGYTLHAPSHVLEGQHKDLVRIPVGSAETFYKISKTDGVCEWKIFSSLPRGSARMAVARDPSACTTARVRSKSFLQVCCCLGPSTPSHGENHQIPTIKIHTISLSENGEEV
Description: The cDNA clones encoding the α-1 adrenoreceptors (α-1a, α-1b, and α-1d) were obtained from TULCO (Triangle Universities Licensing Consortium, Research Triangle Park, N.C.) and inserted into the eukaryotic expression vector SnaB30. In this vector, expression of the adrenoreceptor gene is under the transcriptional control of an SV40 early promoter. Positive drug selection is provided by a neomycin-resistance gene. Mouse fibroblast cells (LTK) were transfected with the α1 expression plasmids and grown in Dulbecco's modified Eagle's medium (DMEM) containing 10% fetal calf serum and […]. Stable G418-resistant parental lines were generated, with successful expression of adrenoreceptor protein monitored using radioligand binding techniques. Stable single cell clones derived from the parental lines were screened in adrenoreceptor binding assays to identify clones having high adrenoreceptor density. Roller bottle cultures of the cloned lines were used to provide cell membranes for subsequent adrenoreceptor binding characterization studies. A cell line containing the SnaB30 vector expressing the human erythropoietin gene served as a negative control.
For adrenoreceptor binding assays, large scale membrane preparations were utilized in which 6 million cells were seeded into small (450 cm^2) Corning tissue culture roller bottles. 200 mL of DMEM containing 10% fetal calf serum and 300 μM G418 were added to each roller bottle. A 95% air/5% CO2 gas mixture (sterile) was injected into each roller bottle prior to sealing. The bottles were then incubated at 37° C. on a roller rack for 5 days. Cells were re-fed with fresh medium after 3 days in culture.
On the fifth day of culture, growth medium was removed from cells grown in roller bottles, and the cells were washed twice with PBS (Sigma, 120 mM NaCl, 2.7 mM KCl, 10 mM Na2 HPO4 --NaH2 PO4, pH=7.4). Cells were detached from the roller bottles by incubating for 15 minutes at 37° C. in a Tris-EDTA solution (10 mM Tris, 100 mM NaCl, 1 mM EDTA, pH=7.4). The cell suspension from each roller bottle was decanted into tared centrifuge tubes and kept on ice. An aliquot of each cell suspension was generally taken for cell counting. Cells were centrifuged at 3000×G for 5 min at 2°-4° C., washed with PBS and recentrifuged. The supernatant was decanted and the pellet weighed to determine the wet weight of cells. Cells were washed a final time in 40 vol 5 mM Tris-HCl, 5 mM EDTA, pH=7.7, and centrifuged at 40,000×G for 10 minutes. Cells were homogenized in 10 mL of 50 mM Tris-HCl, 5 mM EDTA (pH=7.4) and diluted to 40 mL/tube. Homogenates were centrifuged at 40,000×G for 10 minutes. The supernatant was decanted and the pellets rehomogenized in 50 mM Tris-HCl (pH=7.4) and centrifuged as before. The supernatant was decanted and the homogenate resuspended in 6.25 volumes (per gram wet weight) of 50 mM Tris-HCl and aliquots of the pooled homogenates frozen in liquid N2 and stored at -70° C. until the time of assay. Rat submaxillary glands were used for α-1A adrenoreceptors and were prepared essentially as described (Michel, A. D., Loury, D. N. and Whiting, R. L., Brit. J. Pharmacol. 98: 83-889 (1989)).
Receptor binding assays for α-1 adrenoreceptors were performed essentially as described by Greengrass and Bremner (Eur. J. Pharmacol. 55: 323-326 (1979)). […] Radioactivity was determined by standard liquid scintillation techniques. Data were analyzed as previously described (Hancock, A. A., Kyncl, J. J., Martin, Y. C. and DeBernardis, J. F., J Receptor Res. 8: 23-46 (1988)).

[2] = biological target: T2, α-1 Adrenoceptors (Rat Aorta) (Rattus norvegicus, UniProt P23944); assay: Functional antagonism at α-1 adrenoceptors, rat aorta; type: cell-based
T2 construct: Rat Aorta; from tissue; host or cells: rat aorta
T2 sequence (P23944 1-561): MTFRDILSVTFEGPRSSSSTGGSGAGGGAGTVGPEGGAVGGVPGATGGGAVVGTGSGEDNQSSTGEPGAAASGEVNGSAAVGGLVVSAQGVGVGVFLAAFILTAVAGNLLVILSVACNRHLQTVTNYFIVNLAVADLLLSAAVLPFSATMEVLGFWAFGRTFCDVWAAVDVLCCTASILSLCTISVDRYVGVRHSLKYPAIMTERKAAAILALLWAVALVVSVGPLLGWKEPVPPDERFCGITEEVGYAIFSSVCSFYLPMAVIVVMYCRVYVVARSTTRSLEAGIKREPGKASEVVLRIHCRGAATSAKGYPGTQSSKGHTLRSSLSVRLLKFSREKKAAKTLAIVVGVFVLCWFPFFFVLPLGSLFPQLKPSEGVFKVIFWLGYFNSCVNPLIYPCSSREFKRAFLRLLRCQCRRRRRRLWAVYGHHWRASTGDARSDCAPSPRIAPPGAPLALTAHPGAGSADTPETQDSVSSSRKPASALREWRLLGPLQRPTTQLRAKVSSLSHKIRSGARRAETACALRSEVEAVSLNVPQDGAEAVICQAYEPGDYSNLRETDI
Outline: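 Phenylephrine dose-response curves for contraction were repeated against increasing test-agent concentrations. pA2 was derived by Schild plot [[…] vs log molarity of test agent].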

[3] = cloned bovine α-1a in LTK cells, [3H]prazosin 0.2 nM, read-out: Radioligand Binding (Ki; nM) 1a (Bovine)

SMILES: COc1ccc2c(n1)sc1c(=O)n(CCCCN3C[C@@H]4COc5cccc(OC)c5[C@@H]4C3)c(=O)[nH]c12 [Example 33, hydrochloride]
- Ki [1, 3]: 0.082 nM
- In Vitro Characterization (pA2) Rat Aorta [2]: 9.15

SMILES: COc1cc2[nH]c(=O)n(CCN3CC[C@H]4c5c(OC)cccc5OC[C@@H]4C3)c(=O)c2cc1OC (relative stereo) [Example 91, 3-[2-((±)-trans-10-Methoxy-1,3,4,4a,5,10b-hexahydro-2H-[1]-benzopyrano[3,4-c]pyrido-3-yl)ethyl]-6,7-dimethoxy-quinazoline-2,4(1H,3H)-dione hydrochloride]
- Ki [1, 3]: 0.066 nM

SMILES: COc1cccc2c1[C@@H]1CCN(CCCCn3c(=O)[nH]c4c(sc5ccccc54)c3=O)C[C@H]1CO2 (relative stereo) [Example 87, 3-[4-((±)-trans-10-Methoxy-1,3,4,4a,5,10b-hexahydro-2H-[1]-benzopyrano[3,4-c]pyrido-3-yl)butyl]-[1]-benzthieno[3,2-d]pyrimidine-2,4(1H,3H)-dione hydrochloride]
- Ki [1]: 0.227 nM

SMILES: COc1cccc2c1[C@@H]1CCN(CCCCn3c(=O)[nH]c4c(sc5cccnc54)c3=O)C[C@H]1CO2 (relative stereo) [Example 88, 3-[4-((±)-trans-10-Methoxy-1,3,4,4a,5,10b-hexahydro-2H-[1]-benzopyrano[3,4-c]pyrido-3-yl)butyl]-pyrido[2',3':4,5]thieno[3,2-d]pyrimidine-2,4(1H,3H)-dione hydrochloride]
- Ki [1]: 0.11 nM
